In ChEMBL document CHEMBL1151280, “ent-Kaurane Diterpenoids from Isodon albopilosus” (J Nat Prod, 2005):

Tested on: HepG2
Experiment: Cytotoxicity against human HepG2 cells after 24 hrs by Alamar blue assay
Type: functional, cell-based
Conditions: for IC50: HepG2, 24 h

`C=C1C(=O)[C@@]23[C@H](O)C[C@H]4[C@@](C)(CCC[C@]4(C)C=O)[C@@H]2C[C@H](O)[C@@H]1[C@H]3O` [MACROCALYXIN C] was tested. Which IC50 did it give?
The IC50 was 30.8 µM.

`C[C@H]1C(=O)[C@@]23[C@H](O)C[C@@H]4[C@@](C)(CO[C@@H]5O[C@H](CO)[C@@H](O)[C@H](O)[C@H]5O)CCC[C@@]4(C)[C@@H]2C[C@H](O)[C@@H]1[C@H]3O` was tested. Which Activity did it give?
Its Activity is “Not toxic”.

Which Activity does the source give for `C=C1[C@@H](OC(C)=O)[C@@]23[C@H](O)C[C@@H]4[C@@](C)(CO)CCC[C@@]4(C)[C@@H]2CC[C@@H]1[C@H]3O` here?
Its Activity is “Not toxic”.

Which IC50 does the source give for `C=C1C(=O)[C@@]23[C@H](O)C[C@@H]4[C@@](C)(COC(C)=O)CCC[C@@]4(C)[C@@H]2C[C@H](O)[C@@H]1[C@H]3O` [ALBOPILOSIN A] here?
The IC50 was 24.9 µM.

Which Activity does the source give for `C=C1[C@H]2[C@@H](O)[C@@]3([C@H](O)C[C@H]4[C@@](C)(CCC[C@]4(C)C=O)[C@@H]3C[C@@H]2O)[C@@H]1OC(C)=O` here?
Its Activity is “Not toxic”.

For `C=C1C(=O)[C@@]23[C@H](O)C[C@H]4[C@@](C)(CCC[C@]4(C)C(=O)O)[C@@H]2CC[C@@H]1[C@H]3O`, which Activity is on record?
Its Activity is “Not toxic”.

`C=C1C[C@@]23[C@H](O)C[C@@H]4[C@@](C)(CO)CCC[C@@]4(C)[C@@H]2C[C@H](O)[C@@H]1[C@H]3O` was tested. Which Activity did it give?
Its Activity is “Not toxic”.

With `C=C1C(=O)[C@@]23[C@H](O)C[C@H]4[C@@](C)(CCC[C@]4(C)C(=O)O)[C@@H]2C[C@H](O)[C@@H]1[C@H]3O` as the compound, how does the Activity read?
Its Activity is “Not toxic”.

How did the Activity turn out when `C[C@H]1C(=O)[C@@]23[C@H](O)C[C@H]4[C@@](C)(CCC[C@]4(C)C(=O)O)[C@@H]2C[C@H](O)[C@@H]1[C@H]3O` was run?
Its Activity is “Not toxic”.

With `C=C1[C@H]2[C@@H](O)[C@@]3([C@H](O)C[C@@H]4[C@@](C)(CO)CCC[C@@]4(C)[C@@H]3C[C@@H]2O)[C@@H]1OC(C)=O` as the compound, how does the Activity read?
The Activity was “Not toxic”.

Which IC50 does the source give for `C=C1C(=O)[C@@]23[C@H](O)C[C@@H]4[C@@](C)(CO)CCC[C@@]4(C)[C@@H]2CC[C@@H]1[C@H]3O` [EXCISANIN C] here?
The IC50 was 13.2 µM.

How did the IC50 turn out when `C=C1C(=O)[C@@]23[C@H](O)C[C@H]4[C@@](C)(CCC[C@]4(C)C=O)[C@@H]2CC[C@@H]1[C@H]3O` [ALBOPILOSIN H] was run?
Its IC50 is 13.3 µM.

`C[C@@H]1[C@@H]2C(=O)C[C@H]3[C@]4(C)CCC[C@](C)(CO)[C@H]4C[C@@H](O)[C@@]3([C@@H]1O)[C@@H]2O` was tested. Which Activity did it give?
Its Activity is “Not toxic”.

With `C=C1C(=O)[C@@]23[C@H](O)C[C@@H]4[C@@](C)(CO)CCC[C@@]4(C)[C@@H]2C[C@H](O)[C@@H]1[C@H]3O` [RABDOKUNMIN C] as the compound, how does the IC50 read?
Its IC50 is 42.1 µM.

How did the Activity turn out when `CC(=O)OC[C@@]1(C)CCC[C@]2(C)[C@@H]1C[C@@H](O)[C@@]13C(=O)[C@H](CO)[C@@H]([C@H]1O)[C@@H](O)C[C@@H]23` was run?
The Activity was “Not toxic”.
